Assay results: a melting point compilation (Tetko et al.; mined from patent text by program, amines drawn as free bases though some values may be those of a salt)

SMILES | melting point [°C]
NC(c1ccccc1CNc1ccnc2cc(Cl)ccc12)c1ccnc2cc(Cl)ccc12 (stereo not drawn) | > 250
N#Cc1ccc2[nH]c3ccc(C#N)cc3c2c1 | 360
CSCC[C@H](N)C(=O)NC(=O)C(CSC(C)=O)Cc1ccccc1 (stereo partly drawn) | 119 to 121
O=C(O)c1cc([N+](=O)[O-])cc(S(F)(F)(F)(F)F)c1 | 140
Fc1ccc(-c2cc3ccccc3n2-c2ccccc2)cc1 | 126 to 128
C[C@@H]1S[C@@H](C(=O)Nc2ccc(CN3C(=O)CSC3=O)cc2)Cc2cc3c(cc2C1=O)OCO3 | 232 to 235
c1ccc(N2CCN(Cc3ccc4ccccc4c3)CC2)nc1 | 124 to 126
CC(=O)CS(=O)(=O)N(C)C | 47 to 49
O=C(CCl)Nc1ccc(NC(=O)CCl)c2c1C(=O)c1ccccc1C2=O | 221
O=C(NCCCc1ccncc1)N(CCC12CC3CC(CC(C3)C1)C2)C1CC1 | 108 to 116
CC(C)[Si](C(C)C)(C(C)C)N1C=C2C=C(C=O)OCC3=C2C(=C1)CC3N(C)C (stereo not drawn) | 104 to 106
CC(=O)C(=Cc1cccc([N+](=O)[O-])c1)C(=O)OCCCl | 95 to 97
Nc1nc(-c2ccccc2)c(-c2ccnc(Nc3cccc(CO)c3)n2)s1 | 214 to 215
O=[N+]([O-])c1c(Cl)nc(C2CC2)nc1Cl | 50 to 52
CCOC(=O)CCNC(=O)CN1CC(=O)N(C)c2ccc(NC(=O)NCc3ccccc3)cc2C1=O | 100 to 102
CCC1(c2ccccc2)OC(C(=O)O)Oc2ccc(Cl)cc21 (stereo not drawn) | 85
O=C1NC(=Cc2ccccc2)C(NCc2ccccc2)=C1[N+](=O)[O-] | 218
Cc1cc(C)nc(NC(=O)NS(=O)(=O)c2ccccc2C(F)F)n1 | 190 to 195
C[C@@H](O)c1nccc(N2CCn3c(nnc3-c3nc4ccccc4s3)C2)n1 | 216 to 218
CC(=C1SCCCS1)c1ccc(Oc2ccc(S(C)=O)cc2)cc1 (stereo not drawn) | 132
CCCc1ccc(C(=O)NCCc2cccs2)cc1 | 97 to 99
CCOC(=O)c1cc2cc(-c3ccc(NC(C)=O)cc3)ccc2o1 | 174 to 176

SMILES | melting point [°C]
Cc1c(Sc2ccc(Cl)cc2)nn(-c2ccccc2)c(=O)c1C#N | 180 to 182
O=C(O)CCCc1cc2nc(C(F)(F)F)ccc2n1S(=O)(=O)c1ccc2c(c1)OCO2 | 161
CC(=O)OC(C)OC(=O)[C@H](Cc1ccc(-c2c(C)n(C)c(=O)n(C)c2=O)cc1)NC(=O)c1c(C)cccc1Cl (stereo partly drawn) | 84 to 88
O=C(O)n1ccc2c(OCc3ccccc3)c(Cc3ccccc3)ccc21 | 181 to 183
CC(=O)OCCc1ccc(NC(=O)OCc2ccccc2)cc1 | 148 to 149
CNC(=O)C(C)Oc1ccc(O)cc1 (stereo not drawn) | 112
C=CCN(CC=C)C(=O)C(C#N)(CC)c1ccccc1 (stereo not drawn) | 33 to 35
COc1ccc(S(=O)(=O)N(Cc2ccccc2)C(C)C(=O)NO)cc1 (stereo not drawn) | 127 to 129
Cc1ccc(-c2nc(-c3ccc(C)cc3)nc(-c3ccc(C)cc3)n2)cc1 | 282 to 285
CC(C)(C)OC(=O)N(Cc1ccc(C2CCCCC2)cc1)c1nc(Oc2ccc(F)cc2)c2ncn(CC(=O)O)c2n1 | 119 to 133
Nc1ccc2ccc(-c3cccc(F)c3)nc2n1 | 160
CC1(C)CCCC(C)(C)N1c1nc(Cl)cc(N2CCCC2)n1 | 130 to 135
CCCOc1ncc(I)cc1-c1nc2c(CC)nn(CCN3CCOCC3)c2c(=O)[nH]1 | 175 to 177
CC1CCC2(OC1)OC1CC3C4CCC5CC(O)CCC5(C)C4C=CC3(C)C1C2C (stereo not drawn) | 179 to 181
NC(=O)CNC(=O)c1cccc(-c2cccc3cc(Cc4cc(F)cc(Cl)c4)sc23)n1 | 200 to 201
CCCc1nc2ccnn2c(O)c1Cc1ccc(-c2ccccc2C#N)cc1 | 251
CCOC(=O)C(NC(=O)CO)C(=O)OCC | 74 to 74.5
CC1CCc2ncc(C#N)c(=O)n21 (stereo not drawn) | 148
CN(C)c1ccc(C(=O)c2cc(C(F)(F)F)cc(C(F)(F)F)c2)cc1 | 129 to 131
Cn1ccc(-c2cccc(C=O)n2)n1 | 98 to 100
Cc1nonc1-n1cc(C(=O)O)c(=O)c2cc(F)c(F)cc21 | 238 to 241
Cn1cc(Br)cc(Br)c1=O | 87 to 88

SMILES | melting point [°C]
CCNc1cccnc1N1CCN(C(=O)c2ccc(C(=O)N3CCN(CCO)CC3)cc2)CC1 | 152 to 153
CC(C)Nc1c(-c2ccc(S(C)(=O)=O)cc2)cnn(Cc2ccccc2)c1=O | 146 to 147
Nc1ncccc1C(=O)NCC1CCN(C[C@H]2COc3ccc4[nH]ccc4c3O2)CC1 | 104 to 106
CC1=C(N2CC2)C(=O)c2c([nH]c(CO)c2C)C1=O | 224 to 225
O=C(NC1CCc2ccccc2C1=O)c1ccccc1 (stereo not drawn) | 175
C1=C(c2ccccc2)CCN(CC2CCC=C(c3ccccc3)C2)C1 (stereo not drawn) | 94 to 100
N=c1sc2cc(OC(F)(F)F)ccc2n1CCS | 110
CCOC(=O)C(=O)Nc1ccc(NC(=O)C(=O)OCC)nc1 | 178 to 180
CCNC(=O)c1cccc2[nH][nH]c(=O)c12 | 209 to 210
O=c1c2ccccc2n(CCCOC2CCCCO2)c2ccccc12 (stereo not drawn) | 140 to 142
Clc1cc2snnc2s1 | 78 to 79
CCCCN(C)C(N)=C(C#N)C#N | 160 to 161
O=C(NCCO)c1cccc(-c2ccc3c(c2)N(c2ccc(Cl)cc2Cl)CCCC3)c1 | 172 to 173
O=C1c2ccccc2-n2cnc(Cl)c2[C@@H]2CCN12 | 210 to 214
Cc1cccc2c1ccc1c(O)cc(=O)oc12 | 223 to 225
CC(O)c1ccc(-c2ccc([N+](=O)[O-])cc2)o1 (stereo not drawn) | 69.5 to 70.5
CN1C(=O)C(NC(=O)Nc2ccccc2[N+](=O)[O-])N=C(c2ccccc2)c2ccccc21 (stereo not drawn) | 260 to 261
O=C(O)C1(c2ccc(Nc3nc(N4CCCC4)nc4c3CCC4)cc2)CCC1 | 245 to 247
O=C(CNc1ccc2[nH]c(=O)[nH]c2c1)N1CCC(Cc2ccccc2)CC1 | 237 to 238
O=S(=O)(Nc1ncnc(Cl)c1-c1ccc(-c2ccccc2)cc1)c1ccc(Cl)cc1 | 234 to 235
CC(CCNC(=O)C(C#N)=Cc1ccc(O)c(O)c1)NC(=O)C(C#N)=Cc1ccc(O)c(O)c1 (stereo not drawn) | 281
Oc1ccc(-c2nnc(CSCCOc3ccccc3)n2-c2ccccc2)cc1 | 214 to 216

The next lines start with the values.

melting point [°C] | SMILES
198 to 200 | Cc1nc2cc(OCc3ccccc3)c(OCc3ccccc3)cc2nc1C(=O)O
136 to 138 | CCN(CC)CCNC(=O)c1nc2ccc(I)cc2[nH]1
156 to 157 | COc1ccc(Oc2ccc(NC(=O)N3CCc4ccccc4CC3)cn2)cc1
117 to 118 | O=c1ccc2ccc(OCCCN3CCN(c4ccccc4)CC3)cc2o1
66 to 67 | C#CCOc1cc(C=O)ccc1OC
157 | COc1ccc(C=O)cc1-n1nnnc1C
106 to 107 | CCCCCCn1c(=O)n(C)c(=O)c2cnn(C)c21
98 to 99 | CC(Oc1ccc(Cl)cc1)c1ccnc2ncnn12 (stereo not drawn)
109 to 113 | COc1ccc(NN=C(Sc2ccc(Cl)c(Cl)c2)C(C)=O)cc1
296 to 298 | CC1(C)CC(=O)Nc2cc3nc(-c4ccccc4)[nH]c3cc21
110 to 111 | CCC(O)(c1ccc(OCc2cccc(C)n2)cc1)c1ccccc1OC (stereo not drawn)
148 to 151 | CC(=O)OCc1nccc(OCCCOc2ccc3ncc([N+](=O)[O-])n3n2)c1C
136 to 138 | CCCc1nn(C)c2c(=O)n(CCCc3cccc(OC(C)(CC)C(=O)O)c3)c(C)nc12 (stereo not drawn)
93 to 94 | CNc1ccc(OC)cc1[N+](=O)[O-]
108 to 112 | COC(=O)c1ccc(CCN(C)CCCC(C#N)(c2cccc(C(=O)OC)c2)C(C)C)cc1 (stereo not drawn)
161 to 163 | O=C(O)CCCCc1cccc2cncn12
261 to 262 | CS(=O)c1ccc(-c2nc(-c3nc4ccccc4c(=O)[nH]3)ccc2OCCO)cc1 (stereo not drawn)
149 to 152 | Cc1cccc(C)c1/N=C1\SCC(=O)N1N
232 to 234 | CC(C)(O)Cn1c(CONS(C)(=O)=O)nc2c(N)nc3ccccc3c21

melting point [°C] | SMILES
150 to 151 | COc1ccc(OCCCCCCc2c(C)n[nH]c2C)c(Cl)c1
125 to 126 | Cc1oncc1C(=O)c1ccc(S(C)=O)c(Cl)c1Cl (stereo not drawn)
178 to 179 | Cc1oc(-c2ccccc2)nc1COc1ccc(COc2ccc3ccccc3c2CC#N)cc1
83 to 85 | CC1(C)CC(C)(C)CC(CCCc2ccccc2)(NC(=O)CCl)C1
178 to 179 | COc1cc2c(cc1OC)S(=O)c1ccc(Cl)cc1C(N1CCN(C)CC1)C2 (stereo not drawn)
145 to 148 | CCCCc1oc2ccccc2c1C(=O)N(Cc1ccccc1)Cc1ccc(-c2ccc(OC)c(Br)c2)cc1
63 to 64 | O=C1CCC(CCC(=O)OCc2ccc(Cl)cc2)N1 (stereo not drawn)
105 | CCCCc1cn(CC2OC(n3cnc4c(NCc5ccc(OC)cc5)ncnc43)C(O)C2O)nn1 (stereo not drawn)
99 to 104 | CCCCCNc1nc(C)c(C(=O)c2ccc(Cl)c([N+](=O)[O-])c2)s1
83 to 87 | CCOC(=O)c1ccc2c(c1)sc1ccc(C)cc12
255 to 261 | CC1NC(=O)NN=C1c1ccc(N(C)C)cc1 (stereo not drawn)
103 | COc1ccc2cc(CCl)c(CCl)cc2c1Cl
127 to 129 | Cc1ccc(CC(CNC(=O)C(C)c2ccc(NS(C)(=O)=O)c(Cl)c2)COC(=O)C(C)(C)C)cc1C (stereo not drawn)
119 to 121 | COC(=O)c1ccnc(N2CCN(Cc3ccc(F)cc3)C2=O)c1
263 to 265 | O=c1ccc2c(-n3cnc(-c4ccccc4)c3)nccc2[nH]1
32 to 33 | O=C(O)CCCCCCCCc1cccs1
216 to 217 | Cc1cc(-c2nc3c(Cl)cccc3c(=O)[nH]2)cc(C)c1OCCN1CCCC1
289 to 290 | COc1ccc2nc(-c3csc4ccccc34)[nH]c(=O)c2c1
